Source: US8569447B2, “Cell-permeable peptide inhibitors of the JNK signal transduction pathway” (Xigen SA, priority 2003, dated 2013)
Non-standard residues stand in square brackets, D forms with d. Residues, ends and D or L forms follow the SMILES beside them.

What was measured:
JNK = details: JBDs of IB1 and IB2; cited from earlier work
recombinant JNK1α1 = recombinant JNK1α1 (Homo sapiens, UniProt P45983); assay: In vitro kinase assay with recombinant JNK1α1; assay type: biochemical
Protocol: (§1) Cellular extracts were prepared by scraping cells in lysis buffer (20 mM Tris-acetate, 1 mM EGTA, 1% Triton X-100, 10 mM p-nitrophenyl-phosphate, 5 mM sodium pyrophosphate, 10 mM β-glycerophosphate, 1 mM dithiothreitol). 25 μg samples were incubated for 1 hour at room temperature with 1 μg GST-c-Jun (amino acid residues 1-89) and 10 μL glutathione-agarose beads (Sigma). The beads were washed four times and then resuspended in the lysis buffer described above. In vitro kinase assays were then performed using recombinant JNK1α1 and 0.5 μg of a substrate selected from the group consisting of GST-fusion proteins (e.g., GST-Jun and GST-Elk1 fusion proteins), casein and histone (Sigma). Reactions were initiated with 10 mM MgCl2 and 10 μM ATP in the presence of 5 μCi ^33P-ATP, and were incubated for 30 minutes at 30° C. The reaction products were separated by SDS-PAGE, and the gels were dried and then exposed to X-ray films (Kodak).
The terms “P-Jun” and “P-Elk1,” as used herein, refer to the radiolabeled (i.e., phosphorylated with ^33P-ATP) forms of GST-Jun and GST-Elk1 substrates, respectively.

[1] = Systolic and diastolic blood pressure after D-JNKI injection; assay type: in vivo, mice; details: 10 minutes before until 30 minutes after injection
Source text: Using male ICR-CD1 mice (approximately 6 weeks old and weighing in the range of about 18 to 37 g) (Harlan, Inc.), ischemia was provoked by introducing a filament from the common carotid artery into the internal carotid artery and advancing the filament into the arterial circle, thereby occluding the middle cerebral artery. See, e.g., Huang et al., Science, 265:1883-85 (1994); Hara et al., Proc. Natl. Acad. Sci. (USA) 94:2007-12 (1997); each of which is hereby incorporated by reference in its entirety. Regional cerebral blood flow was measured by laser-Doppler flowmetry with a probe fixed on the skull throughout the ischemia and until 10 minutes after reperfusion. Rectal temperature was measured and maintained at 37° C. The animals were sacrificed 48 hours after reperfusion. Serial cryostat sections […] were traced using a computer-microscope system equipped with the Neurolucida program (Microbrightfield, Inc.), and the volumes of the ischemic area and of the whole brain were calculated (blind) with the Neuroexplorer program. Systolic and diastolic blood pressure were measured with an arterial catheter in three additional mice from 10 minutes before the D-JNKI injection until 30 minutes afterwards. […] The Guidelines of the Swiss Federal Veterinary Office were followed in all experiments.

[2] = Rotarod test of motor coordination; assay type: in vivo, mice; details: for motor coordination (rotarod), overall: doses of Table 2: D-JNKI i.p. and icv, MK-801 1 mg/Kg i.p.
Protocol: Typically, the high toxicity of other neuroprotective compounds has severely limited their clinical use. (See Gladstone et al., Stroke, 33:2123-36 (2002), incorporated by reference in its entirety). The ability of mice to maintain themselves on horizontal turning rotarod was used as criterion for possible side effects of different doses of D-JNKI and of a therapeutic dose of MK-801 (1 mg/Kg, a standard therapeutic dose). […] (11 and 110 mg/Kg) and icv injections of D-JNKI (2 μl containing 15.7 ng or 157 ng of D-JNKI). The i.p. injection of MK-801 (1 mg/Kg) was used as a control compound during this assessment procedure.
The mice were trained the day before and in the morning of the experimental day, in order to reduce the variability between subjects. Both training and test sessions were identical for control and injected mice. […] The mice were placed on the rotarod, which was programmed to accelerate uniformly from 4 to 40 rpm. The latency to falls for each mouse tested was recorded. The results of this assessment using the rotarod method are presented in Table 2 as median latency to fall (measured in seconds).

ERK2 = ERK2 (Homo sapiens, UniProt P28482); assay: Kinase specificity assay; assay type: biochemical; details: 500 μM
Protocol: as §1
(§2) In vitro experiments were performed to determine the specificity of the JNKI peptides in blocking JNK activation. […] The complete list of substrates used in these experiments can be found on the world wide web at www.upstate.com/img/pdf/KinaseProfiler.pdf. […] The substrates for these kinases are ERK2:ERK1; p38:ATF2; p34, pKC, pKA:histone; and caK:caseine. […] For a discussion of other small chemical inhibitors of the Jun N-terminal kinase (JNK), See Bennett et al., Proc. Natl. Acad. Sci. (USA), 98:13681-86 (2001), hereby incorporated by reference in its entirety.

caK = assay: Kinase specificity assay; assay type: biochemical; details: 500 μM, substrate caseine
Protocol: as §1, §2

p34 = p34 (Homo sapiens, UniProt P06493); assay: Kinase specificity assay; assay type: biochemical; details: 500 μM, substrate histone
Protocol: as §1, §2

p38 = p38 (Homo sapiens, UniProt Q16539); assay: Kinase specificity assay; assay type: biochemical; details: 500 μM, substrate ATF2
Protocol: as §1, §2

pKC = assay: Kinase specificity assay; assay type: biochemical; details: 500 μM, substrate histone
Protocol: as §1
In vitro experiments were performed to determine the specificity of the JNKI peptides in blocking JNK activation. In particular, the effect of these peptides on the activity of 40 different kinases (10 μM peptides, 10 μM ATP) towards their respective substrates was tested. The complete list of substrates used in these experiments can be found on the world wide web at www.upstate.com/img/pdf/KinaseProfiler.pdf. […]

βTC-3 cell cultures = assay: Cellular import of fluorescein-labeled peptides; assay type: cell-based; details: 1 μM, βTC-3 cells
Protocol: The ability of the L- and D-enantiomeric forms of TAT, TAT-IB1 and TAT-IB2 peptides (“TAT-IB peptides”) to enter cells were evaluated.
Labeled peptides (1 μM) were added to βTC-3 cell cultures, which were maintained as described in Example 3. At predetermined times, cells were washed with PBS and fixed for five minutes in ice-cold methanol-acetone (1:1) before being examined under a fluorescence microscope. Fluorescein-labeled BSA (1 μM, 12 moles/mole BSA) was used as a control.

Sequence of recombinant JNK1α1 (P45983 1-384 isoform P45983-2, species assumed): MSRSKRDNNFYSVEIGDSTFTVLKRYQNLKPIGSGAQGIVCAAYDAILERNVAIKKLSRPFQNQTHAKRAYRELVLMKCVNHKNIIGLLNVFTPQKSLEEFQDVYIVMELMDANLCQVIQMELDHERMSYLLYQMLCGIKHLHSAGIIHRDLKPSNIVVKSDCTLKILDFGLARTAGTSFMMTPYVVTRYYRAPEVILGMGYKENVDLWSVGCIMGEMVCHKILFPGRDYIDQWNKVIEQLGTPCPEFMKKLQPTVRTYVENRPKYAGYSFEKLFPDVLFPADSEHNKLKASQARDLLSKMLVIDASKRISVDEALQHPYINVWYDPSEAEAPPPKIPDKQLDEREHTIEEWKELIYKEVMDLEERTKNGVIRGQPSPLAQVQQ
Sequence of p38 (Q16539 whole entry): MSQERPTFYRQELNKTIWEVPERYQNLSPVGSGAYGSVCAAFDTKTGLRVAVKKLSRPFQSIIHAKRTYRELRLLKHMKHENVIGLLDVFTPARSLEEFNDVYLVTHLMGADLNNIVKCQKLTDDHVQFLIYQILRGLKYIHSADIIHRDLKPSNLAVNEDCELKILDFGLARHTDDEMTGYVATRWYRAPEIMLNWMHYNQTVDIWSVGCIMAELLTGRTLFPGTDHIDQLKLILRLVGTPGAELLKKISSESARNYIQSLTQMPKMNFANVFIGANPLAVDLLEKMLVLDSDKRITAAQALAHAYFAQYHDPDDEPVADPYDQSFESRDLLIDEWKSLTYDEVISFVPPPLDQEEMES
Sequence of ERK2 (P28482 whole entry, species assumed): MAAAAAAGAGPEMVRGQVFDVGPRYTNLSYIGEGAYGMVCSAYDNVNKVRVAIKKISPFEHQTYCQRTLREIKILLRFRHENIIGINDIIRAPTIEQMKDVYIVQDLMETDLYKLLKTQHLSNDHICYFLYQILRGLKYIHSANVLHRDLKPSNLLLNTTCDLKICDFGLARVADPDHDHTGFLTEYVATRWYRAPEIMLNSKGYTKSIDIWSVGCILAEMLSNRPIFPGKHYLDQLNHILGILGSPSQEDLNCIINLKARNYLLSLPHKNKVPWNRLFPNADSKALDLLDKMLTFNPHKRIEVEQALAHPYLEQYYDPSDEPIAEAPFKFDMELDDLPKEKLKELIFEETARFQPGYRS
Sequence of p34 (P06493 whole entry): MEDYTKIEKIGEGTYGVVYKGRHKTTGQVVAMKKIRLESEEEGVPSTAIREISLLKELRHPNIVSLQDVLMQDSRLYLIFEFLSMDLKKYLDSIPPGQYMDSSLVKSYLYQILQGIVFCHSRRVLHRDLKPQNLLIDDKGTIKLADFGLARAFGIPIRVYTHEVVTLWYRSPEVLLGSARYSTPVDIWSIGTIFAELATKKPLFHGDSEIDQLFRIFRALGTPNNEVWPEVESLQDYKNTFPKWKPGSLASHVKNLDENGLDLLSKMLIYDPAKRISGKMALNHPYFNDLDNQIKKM

IPSPSVEEPHKHRPTTLRLTTLGAQDS (IPSPSVEEPHKHRPTTLRLTTLGAQDS) [IB2-long]
efficiency in binding JNK relative to c-Jun or ATF2 (JNK): approximately 100 fold

N=C(N)NCCC[C@H](NC(=O)[C@H](CCCNC(=N)N)NC(=O)[C@H](CCCNC(=N)N)NC(=O)[C@H](CCC(N)=O)NC(=O)[C@H](CCCNC(=N)N)NC(=O)[C@H](CCCNC(=N)N)NC(=O)[C@H](CCCCN)NC(=O)[C@H](CCCCN)NC(=O)[C@H](CCCNC(=N)N)NC(=O)CN)C(=O)O [L-TAT, reference compound]
concentration at which the TAT sequence induces nonspecific precipitation of the proteins in the extracts (recombinant JNK1α1): greater than 50 μM

PGTGCGDTYRPKRPTTLNLFPQVPRSQDT (PGTGCGDTYRPKRPTTLNLFPQVPRSQDT) [IB1-long]
efficiency in binding JNK relative to c-Jun or ATF2 (JNK): approximately 100 fold

CC(C)C[C@@H](NC(=O)[C@@H](Cc1ccccc1)NC(=O)[C@H]1CCCN1C(=O)[C@@H](CCC(N)=O)NC(=O)[C@H](NC(=O)[C@H]1CCCN1C(=O)[C@@H](CCCNC(=N)N)NC(=O)[C@@H](CO)NC(=O)[C@@H](CCC(N)=O)NC(=O)[C@@H](CC(=O)O)NC(=O)[C@H](N)[C@H](C)O)C(C)C)C(=O)N[C@H](CC(N)=O)C(=O)N[C@H](CC(C)C)C(=O)N[C@@H](C(=O)N[C@@H](C(=O)N1CCC[C@@H]1C(=O)N[C@H](CCCNC(=N)N)C(=O)N[C@H](CCCCN)C(=O)N1CCC[C@@H]1C(=O)N[C@H](CCCNC(=N)N)C(=O)N1CCC[C@@H]1C(=O)N1CCC[C@@H]1C(=O)N[C@H](CCCNC(=N)N)C(=O)N[C@H](CCCNC(=N)N)C(=O)N[C@H](CCCNC(=N)N)C(=O)N[C@H](CCC(N)=O)C(=O)N[C@H](CCCNC(=N)N)C(=O)N[C@H](CCCNC(=N)N)C(=O)N[C@H](CCCCN)C(=O)N[C@H](CCCCN)C(=O)N[C@H](CCCNC(=N)N)C(=O)NCC(=O)O)[C@H](C)O)[C@H](C)O [D-JNKI, TDQSRPVQPF LNLTTPRKPR PPRRRQR RKKRG] (H-[dT][dD][dQ][dS][dR][dP][dV][dQ][dP][dF][dL][dN][dL][dT][dT][dP][dR][dK][dP][dR][dP][dP][dR][dR][dR][dQ][dR][dR][dK][dK][dR]G-OH)
change of blood pressure [1]: less than 10%
Median Latency to Fall ([2]; 15.7 ng icv, 1 day): 302 s
Median Latency to Fall ([2]; 15.7 ng icv, 6 days): 345 s
Median Latency to Fall ([2]; 15.7 ng icv, 12 days): 285 s
Median Latency to Fall ([2]; 15.7 ng icv, +3 hours): 342 s
Median Latency to Fall ([2]; 15.7 ng icv, −1 hour): 210 s
Median Latency to Fall ([2]; 157 ng icv, 1 day): 253 s
Median Latency to Fall ([2]; 157 ng icv, 6 days): 338 s
Median Latency to Fall ([2]; 157 ng icv, 12 days): 335 s
Median Latency to Fall ([2]; 157 ng icv, +3 hours): 200 s
Median Latency to Fall ([2]; 157 ng icv, −1 hour): 260 s
Median Latency to Fall ([2]; 11 mg/Kg i.p., 1 day): 372 s
Median Latency to Fall ([2]; 11 mg/Kg i.p., 6 days): 287 s
Median Latency to Fall ([2]; 11 mg/Kg i.p., 12 days): 418 s
Median Latency to Fall ([2]; 11 mg/Kg i.p., +3 hours): 221 s
Median Latency to Fall ([2]; 11 mg/Kg i.p., −1 hour): 204 s
Median Latency to Fall ([2]; 110 mg/Kg i.p., 1 day): 447 s
Median Latency to Fall ([2]; 110 mg/Kg i.p., 6 days): 416 s
Median Latency to Fall ([2]; 110 mg/Kg i.p., 12 days): 325 s
Median Latency to Fall ([2]; 110 mg/Kg i.p., +3 hours): 266 s
Median Latency to Fall ([2]; 110 mg/Kg i.p., −1 hour): 276 s
motor impairment ([2]; at 6 and 15 days following treatment): no sign of motor impairment
motor coordination (rotarod), overall [2]: unimpaired

C[C@]12N[C@H](Cc3ccccc31)c1ccccc12 [MK-801, reference compound]
Median Latency to Fall ([2]; 1 mg/Kg i.p., 1 day): 174 s
Median Latency to Fall ([2]; 1 mg/Kg i.p., 6 days): 233 s
Median Latency to Fall ([2]; 1 mg/Kg i.p., 12 days): 292 s
Median Latency to Fall ([2]; 1 mg/Kg i.p., +3 hours): incapable
Median Latency to Fall ([2]; 1 mg/Kg i.p., −1 hour): 226 s
lethality ([2]; 10-fold higher dose of MK-801): killed all the mice
motor coordination (rotarod), overall [2]: dramatic impairment of motor coordination
time after which side effects essentially disappear ([2]; lower dose of MK-801 (1 mg/Kg i.p.)): 24 h

CC(C)C[C@H](NC(=O)[C@H](CC(N)=O)NC(=O)[C@H](CC(C)C)NC(=O)[C@@H](NC(=O)[C@@H](NC(=O)[C@@H]1CCCN1C(=O)[C@H](CCCNC(=N)N)NC(=O)[C@H](CCCCN)NC(=O)[C@@H]1CCCN1C(=O)[C@@H](N)CCCNC(=N)N)[C@@H](C)O)[C@@H](C)O)C(=O)N[C@@H](Cc1ccccc1)C(=O)N1CCC[C@H]1C(=O)N[C@@H](CCC(N)=O)C(=O)N[C@H](C(=O)N1CCC[C@H]1C(=O)N[C@@H](CCCNC(=N)N)C(=O)N[C@@H](CO)C(=O)N[C@@H](CCC(N)=O)C(=O)N[C@@H](CC(=O)O)C(=O)N[C@H](C(=O)O)[C@@H](C)O)C(C)C [L-JBD20, RPKRPTTLNL FPQVPRSQDT] (H-RPKRPTTLNLFPQVPRSQDT-OH)
IC50 (recombinant JNK1α1; JNK targets ATF2, IRS-1, MADD, bcl-xl, each case, data not shown): ~1000 nM
inhibition of JNK action without the TAT sequence (recombinant JNK1α1; dose response): can inhibit JNK action
interference with activity of ERK2 (ERK2): did not interfere with the activity
interference with activity of caK (caK): did not interfere with the activity
interference with activity of p34 (p34): did not interfere with the activity
interference with activity of p38 (p38): did not interfere with the activity
interference with activity of pKC (pKC): did not interfere with the activity

fluorescein labeled bovine serum albumin: fluorescein labeled BSA (12 moles fluorescein/mole BSA) used as a control
entry into cells (βTC-3 cell cultures): did not enter the cells
